Data on two compounds can be found in ChEMBL document CHEMBL1125877, “Synthesis of high specific activity (+)- and (-)-6-[18F]fluoronorepinephrine via the nucleophilic aromatic substitution reaction” (1991).

The species entered for assay [1] is Papio hamadryas. In words: Peak concentration injected dose/cc was observed at 10 min post injection in female baboons. Type of assay: functional.
For assay [2], the species on record is Papio hamadryas. In words: Percent radioactivity remained at 120 min post injection was reported in female baboons. Type of assay: functional, organism-based. As to conditions: tested as the 18F-labelled form.

SMILES strings stand for the structures.

For the compound `NCC(O)c1cc(O)c(O)cc1[18F]` (racemic), the Peak concentration in the assay filed under Papio hamadryas [1] was found to be 0.042%.

For the compound `NCC(O)c1cc(O)c(O)cc1F` (racemic), the Radioactivity remained in the assay filed under Papio hamadryas [2] came out at 0.032%.
